Bounds are passed on as bounds.

Assay [1] deals with renal proximal tubule cells (RPTC). Briefly: RPTC outgrowth from plated renal proximal tubules (photographs). Type of assay: cell-based, rabbit. Conditions: after 24 hr exposed for 24 hr, 50 μM suramin, 10 ng/ml EGF or suramin+EGF. On the procedure:
(§1) Isolation and culture of renal proximal tubules: Isolation and culture of renal proximal tubules were performed as described previously (Rodeheaver et al., 1990; Nowak and Schnellmann, 1995; Nowak and Schnellmann, 1996). Female New Zealand White rabbits (1.5-2.5 kg) were purchased from Myrtle's Rabbitry (Thompson Station, Tenn.). RPTC were isolated using the iron oxide perfusion method and grown in 6-well tissue culture dishes under improved conditions. The culture medium was an 1:1 mixture of DMEM/Ham's F-12 (without glucose, phenol red, or sodium pyruvate) supplemented with 15 mM HEPES buffer, 2.5 mM L-glutamine, 1 μM pyridoxine HCl, 15 mM sodium bicarbonate, and 6 mM lactate. Hydrocortisone (50 μM), selenium (5 ng/ml), human transferrin (5 μg/ml) bovine insulin (10 nM) and L-ascorbic acid-2-phosphate (50 μM) were added daily to fresh culture medium.
(§2) Isolated tubules were plated at 1 mg protein/well in a 6-well plate. On day 2, RPTC were incubated in the presence and absence of various pharmacological inhibitors for different time periods as indicated in the figure legends. For some experiments, suramin was added to RPTC on day 3 and then incubated for 24 hr in the presence or absence of various inhibitors before samples were taken.

Assay [2] has the same test system. Put plainly: Cell cycle analysis by flow cytometry: number of RPTC in S-phase. Type of assay: cell-based, rabbit. The method, then:
as §1, §2
Cell cycle analysis: Cell cycle phase was determined using flow cytometry as previously described (Zhuang et al., 2004). Cells were harvested, stained with propidium iodide and the number of cells in S-phase of cell cycle determined.

For assay [3] the test system is unchanged. Put plainly: MTT assay of RPTC proliferation. Type of assay: cell-based, rabbit. Conditions: 48 hr exposure, 50 μM suramin, versus diluent controls. On the procedure:
as §1, with “[…],” for “Schnellmann,”, “medium. Isolated tubules were plated at 1 mg protein/well in a 6-well plate. On day 2, RPTC were incubated in the presence and absence of various pharmacological inhibitors for different time periods as indicated in the figure legends. […] MTT assay: The 3-(4,5-dimethylthiazol-2-yl)-2,5-diphenyl-tetrazolium bromide (MTT) assay was used to assess cell proliferation (Kooistra et al., 1997; […] et al., 2002). Following a 48 hr exposure to various inhibitors or diluents, MTT was added (final concentration of 0.5 mg/ml) to individual cultures for an additional 30 min. Tetrazolium was released by dimethyl sulfoxide and optical density was determined with a spectrophotometer (570 nm). Data were normalized to diluent-treated cultures.” for “medium.”

Assay [4] shares this test system. Put plainly: RPTC scattering, fibroblast-like morphology and lamellipodia (bright field, phalloidin staining). Type of assay: cell-based, rabbit. Conditions: 24 hr. The method, then:
as §1, §2
Immunocytochemistry: After various treatments, RPTC were fixed with 10% buffered formalin, washed, permeabilized, and blocked with BSA. Fluorescein conjugated phalloidin was added and RPTC visualized by fluorescent microscopy.

In the next assay the test system is EGF receptor. Briefly: Immunoblot of EGF receptor phosphorylation (Tyr1068) in RPTC. Conditions: 50 μM suramin, 10 ng/ml EGF or both for 10 min. Type of assay: cell-based, rabbit. On the procedure: (§3) Preparation of cell lysates and immunoblot analysis: After different treatments, RPTC were washed twice with PBS and harvested in lysis buffer (0.25 M Tris-HCl, pH 6.8, 4% SDS, 10% glycerol, 1 mg/ml bromophenol blue, and 0.5% 2-mercaptoethanol). Cells were disrupted by sonication for 15 seconds and lysates stored at −20 °C. Equal amounts of cellular protein lysate were separated on 10% polyacrylamide gels and transferred to nitrocellulose membranes. After treatment with 5% skim milk at 4 °C overnight, membranes were incubated with various antibodies for 1 hr, and then incubated with an appropriate horseradish-peroxidase conjugated secondary antibody (Amersham, Piscataway, N.J.). Bound antibodies were visualized following chemiluminescence detection on autoradiographic film.
To determine whether suramin caused EGF receptor activation, we performed immunoblot analysis using an antibody against phosphorylated tyrosine 1068 of the EGF receptor. Total EGF receptor content was measured using immunoblot analysis and an antibody that recognizes the EGF receptor independent of its phosphorylation state to control for gel loading. […] Thus, suramin induced RPTC proliferation and scattering is not through the EGF receptor.

The test system of the next assay is Akt. Briefly: Immunoblot of Akt phosphorylation in RPTC. Type of assay: cell-based, rabbit. To be noted: 50 μM suramin, 0-120 min. The method, then: as §3
We evaluated whether the PI3K/Akt and/or ERK1/2 pathways are activated in RPTC in response to suramin. The activation of the PI3K and ERK1/2 pathways was measured using immunoblot analysis and antibodies that recognize phosphorylated Akt at serine 473 (a target of PI3K) and ERK1/2, respectively. Total Akt and ERK1/2 content was measured using immunoblot analysis and antibodies that recognize the Akt and ERK1/2 independent of their phosphorylation state to control for gel loading. Suramin-induced Akt phosphorylation within 10 min, reached a maximum at 30 min and was sustained through 120 min of treatment (FIG. 6A). ERK1/2 phosphorylation also was induced within 10 min and maximal at 30 min, but decreased to the control levels at 120 min.

A further assay has as its system ERK1/2. Put plainly: Immunoblot of ERK1/2 phosphorylation in RPTC. To be noted: 50 μM suramin, 0-120 min. Type of assay: cell-based, rabbit. On the procedure: as §3
We evaluated whether the PI3K/Akt and/or ERK1/2 pathways are activated in RPTC in response to suramin. The activation of the PI3K and ERK1/2 pathways was measured using immunoblot analysis and antibodies that recognize phosphorylated Akt at serine 473 (a target of PI3K) and ERK1/2, respectively. Total Akt and ERK1/2 content was measured using immunoblot analysis and antibodies that recognize the Akt and ERK1/2 independent of their phosphorylation state to control for gel loading.

Another assay has as its system Src. Put plainly: Immunoblot of Src phosphorylation (Tyr416, Tyr527) in RPTC. Type of assay: cell-based, rabbit. To be noted: 50 μM suramin. On the procedure: as §3
To determine whether suramin activates Src and whether Src mediates Akt activation, we examined the effect of suramin on Src phosphorylation and the effect of PP1 on suramin-induced Akt phosphorylation. Src activation requires dephosphorylation of tyrosine 527 (Zheng et al., 2000) and phosphorylation of tyrosine 416 in the catalytic domain (Leu and Maa, 2003). Src phosphorylation at tyrosine 416 was detected in control samples. Following suramin-treatment, Src phosphorylation increased within 10 min and returned to the basal level at 60 min (FIG. 8A). […] Thus, suramin-induced RPTC proliferation and scattering is dependent on Src activity and Src is required for activation of the PI3K/Akt signaling pathway.

Assay [5] relates to mouse renal ischemic/reperfusion (I/R) acute renal failure model. Put plainly: Mouse renal ischemic/reperfusion (I/R) acute renal failure model, serum creatinine. Type of assay: in vivo. The method, then: Experiments were designed to investigate whether suramin stimulated recovery of renal function in a mouse renal ischemic/reperfusion (I/R) acute renal failure model. Male C57BL/6 mice weighing 25-30 g were subjected to I/R injury using bilateral renal artery clamping for 26 min and then allowed to recover over time. The renal pedicles were isolated, but no clamps were applied in the sham group. Some mice subjected to I/R were treated with a single intravenous dose of suramin (0.001-10 mg/kg) or diluent 24 hr after reperfusion. Blood was collected at 24 and 48 hr after injury and serum creatinine levels measured as a marker of acute renal failure.

In the case of `Cc1ccc(C(=O)Nc2ccc(S(=O)(=O)O)c3cc(S(=O)(=O)O)cc(S(=O)(=O)O)c23)cc1NC(=O)c1cccc(NC(=O)Nc2cccc(C(=O)Nc3cc(C(=O)Nc4ccc(S(=O)(=O)O)c5cc(S(=O)(=O)O)cc(S(=O)(=O)O)c45)ccc3C)c2)c1` [suramin], the RPTC outgrowth result in assay [1] is on record as “stimulated RPTC outgrowth”. Further, the “RPTC proliferation (S-phase)” value in assay [2] (100 μM suramin, 24 hr, compared with 50 μM) is given as “did not further increase RPTC proliferation”. The “RPTC in S-phase” value in assay [2] (24 hr treatment, four days following plating, suramin 50 μM, EGF 10 ng/ml, untreated approximately 20%) is recorded as 29%. In assay [2] (suramin concentrations lower than 50 μM, 24 hr), the “number of RPTC in S-phase” value is recorded as “did not statistically increase the number of RPTC in S-phase”. Also, in assay [3], the “increase in the number of RPTC (MTT assay)” value is listed as “approximately 40%”. In addition, the “formation of lamellipodia and intercellular contacts” value in assay [4] (50 μM suramin or 10 ng/ml EGF, phalloidin staining) was “increased the formation of lamellipodia and decreased intercellular contacts”. The “RPTC morphology at the edge of the cell island (scattering)” value in [4] (50 μM suramin, RPTC cultured 3 days) is “lost contact with their neighbors and became elongated, fibroblast-like cells”. The “EGF receptor phosphorylation (tyrosine 1068)” value in the assay with EGF receptor is reported as “did not detect phosphorylated EGF receptor”. Also, in the assay with Akt, the “Akt phosphorylation sustained through” value was at least 120 min, the “time of maximum Akt phosphorylation” value came to 30 min and the “time to induction of Akt phosphorylation” value is at most 10 min. For the same molecule, in the assay on ERK1/2, the “time at which ERK1/2 phosphorylation decreased to the control levels” value came out at 120 min, the “time of maximal ERK1/2 phosphorylation” value came to 30 min and the “time to induction of ERK1/2 phosphorylation” value is at most 10 min. Moreover, in the assay on Src, the “reduced phosphorylation of Src at tyrosine 527 sustained through” value was at least 120 min, the “time at which Src phosphorylation (tyrosine 416) returned to the basal level” value worked out at 60 min, the “time to increase of Src phosphorylation at tyrosine 416” value is reported as at most 10 min and the “time to reduced phosphorylation of Src at tyrosine 527” value is at most 5 min. Also, in assay [5] (doses of suramin greater than or equal to 0.1 mg/kg, single intravenous dose 24 hr after reperfusion), the renal function result was “completely restored renal function”. The “recovery of renal function” value in assay [5] (low doses (0.1 mg/kg), given after acute renal failure is fully established) is given as “complete recovery of renal function”. Moreover, the serum creatinine levels entry in assay [5] (single intravenous suramin dose between 0.003 and 0.03 mg/kg 24 hr after reperfusion, I/R plus diluent approximately 2 mg/dl) is given as “approximately 1 mg/dl”.
